In US20090176714A1, “METHOD OF REDUCING THE EFFECTS OF ABeta AND COMPOSITIONS THEREFORE” (priority 2004, published 2009):
No end group written: not given here.

Assays:
[1] = system: hippocampal slice cultures; assay: Aβ-induced cell death (EthD-1/calcein AM, % Death) in organotypic hippocampal slice cultures; assay type: cell-based, mouse
Experimental: Pups from C57B6/SJL mice were anaesthetized and decapitated at postnatal day 15. The brain was removed and placed in ice-cold dissecting medium (50% Minimum Essential Medium (Invitrogen, Carlsbad, Calif.), 50% Hank's Balanced Salt Solution (Invitrogen), 25 mM HEPES, and 36 mM glucose). Both hippocampi were dissected under a dissecting microscope and cut at 400 μm on a McIlwain tissue chopper. Slices were separated and placed on filter inserts with a 30 mm diameter and a 0.4 μm filter pore size (Millipore, Billerica, Mass.) held in 6-well culture plates. For the first 3 days, slices were kept in Neurobasal media with B-27 supplement, 1 mM glutamine, and 1% penicillin/streptomycin (Invitrogen). Subsequently, the media was changed every 3 days using media without antibiotics. Organotypic cultures were maintained in a humidified incubator at 37° C. in 5% O2 and 5% CO2 for 14 to 21 days.
(§1) Cell death and viability was determined on live slices using the fluorescent probes from Molecular Probes' Live/Dead Kit. After a 40 minute incubation in calcein AM (1:400) and ethidium homodimer (1:1000) in phosphate buffered saline, slices were visualized at 200× magnification with an inverted Nikon Diaphot 200 microscope using the Bio-Rad MRC-1024 Laser Scanning Confocal system (Hercules, Calif.). Random images of the neuronal fields were captured at the emission spectrum of each probe, and Scion Image software (Frederick, Md.) was used to quantify the number of live and dead cells. At least three areas including a neuronal field were imaged and used to determine the percent death for each slice. The percent death was calculated as the number of EthD-1 positive cells divided by the total number of EthD-1 and calcein AM positive cells.
β-amyloid1-42 and reverse Aβ (Aβ42-1) were obtained from BACHEM (Torrance, Calif.). These polypeptides were dissolved in 0.1% NH3OH at 222 μM. For treatments, Aβ was aggregated at 50 μM in Neurobasal media with B-27 supplement and 1 mM glutamine at 37° C. for 24 hours. Then, the slice culture media was removed, and the slices were treated with 1 mL of 25 μM or 50 μM Aβ, reverse Aβ, or vehicle for 24 hours. Human TTR (Calbiochem) or IGF-2 (Peprotech, Rocky Hill, N.J.) was added to slices together with the Aβ treatment at final concentrations of 3 μM (TTR) or 500 nM (IGF-2). sAPPα was prepared as described previously (Mattson et al., Neuron, 10:243-254 (1993)).
Unless otherwise stated, all sAPPα treatments were performed at 1 nM 48 hours prior to the addition of Aβ. Antibodies against TTR (C-20) or IGF-2 (F-20; 4 μg/mL; Santa Cruz) or sAPPα (6E10; 10 μg/mL; Chemicon) were added to slices together with the sAPPα treatment. Goat IgG (4 μg/mL; Santa Cruz) or mouse IgG1 (10 μg/mL; Chemicon) was added as a control. The 10 amino acid fragment of the carboxyl-terminal region of sAPPα (592-601 of APP695; SEVKMDAEFR; SEQ ID NO:1; Sigma) was added according to the same protocol for sAPPα.
SiRNA's were created based on the mouse mRNA sequences using the Ambion Silencer siRNA Construction Kit (Austin, Tex.). Several siRNA's were created by in vitro transcription for each silenced gene. Transfection was performed for 4 hours at 37° C. prior to vehicle or sAPPα treatment using 25 nM siRNA combined with the polyamines in the Ambion siPORT Amine Transfection Agent. Transfections were performed in Neurobasal media with 1 mM glutamine (Invitrogen). The successful mRNA target sequences are as follows, TTR: 5′-[…]-3′ (SEQ ID NO:16) and 5′-[…]-3′ (SEQ ID NO:17); IGF-2: 5′-AA-GGGGATAGAGATGTGAGAG-3′ (SEQ ID NO:18) and 5′-AAATTATGTGGT-AATTCTGCA-3′ (SEQ ID NO:19); IGF-1R: 5′-[…]-3′ (SEQ ID NO:20) and 5′-[…]-3′ (SEQ ID NO:21).
β-amyloid1-42 and reverse Aβ (Aβ42-1) were obtained from BACHEM (Torrance, Calif.). These peptides were dissolved in 0.1% NH3OH at 222 μM. For treatments, Aβ was aggregated at 50 μM in Neurobasal media with B-27 supplement and 1 mM glutamine at 37° C. for 24 hours. […]

[2] = system: human cortical slices; assay: Aβ-induced cell death (EthD-1/calcein AM) in human organotypic cortical cultures; assay type: cell-based; details: for Protection against the Aβ-induced EthD-1 staining: FIG. 6C
Text: Four patients with intractable epilepsy who had elected to undergo a temporal lobe resection were recruited for this study. […] However, the overlying temporal cortex is normal. The age of the subjects ranged from 20 to 49. Brain tissue was obtained with informed consent from all patients.
Brain tissue was removed in large, intact pieces by electrocautery. Tissue obtained from the temporal cortex was approximately 3 cm×2 cm×1.5-2 cm. Immediately following removal, the tissue was placed in ice-cold Neuregen-I media (Brainbits, Springfield, Ill.), a CO2 independent transport and holding medium, and transported to a tissue culture laboratory. Meninges were removed before cutting the tissue with a scalpel to produce blocks about 0.5-1 cm^3 such that each gyrus was kept as intact as possible and the cortical layers were preserved. As described previously, incisions were made perpendicular to the longitudinal axis of the gyrus and along the white matter (Verwer et al., Exp. Gerontol., 38:167-172 (2003)). A vibratome was used to cut 400 μm thick slices at a plane perpendicular to the longitudinal axis of the gyrus. Thus, all cortical layers and a small amount of white matter were included in a slice. Alternately, small tissue pieces, which were usually obtained from the hippocampus, were cut at 400 μm using a McIlwain tissue chopper. No more than 2 slices were placed on a filter insert with a 30 mm diameter and a 0.4 μm filter pore size (Millipore, Billerica, Mass.) held in 6-well culture plates. For the first 12 hours, slices were kept in 1-1.2 mL Neurobasal media with B-27 supplement, 0.5 mM glutamine, and 1% penicillin/streptomycin (Invitrogen). Subsequently, the media was changed every 2 days using 1 mL of media without antibiotics. Organotypic cultures were maintained in a humidified incubator at 37° C. in 5% O2, 5% CO2, and 90% N for 4 to 28 days.
as §1, with “images” for “images of the neuronal fields”, “areas” for “areas including a neuronal field”
β-amyloid1-42 and reverse Aβ (Aβ42-1) were obtained from BACHEM (Torrance, Calif.). These peptides were dissolved in 0.1% NH3OH at 222 μM. For treatments, Aβ or reverse Aβ was aggregated at 50 μM in Neurobasal media with B-27 supplement and 0.5 mM glutamine at 37° C. for 24 hours. Then, the slice culture media was removed, and the slices were treated with 1 mL of 25 μM or 50 μM Aβ, reverse Aβ, or vehicle for 24 hour. Human TTR (Calbiochem) was added to slices together with the Aβ treatment at final concentrations of 0.03, 0.3, and 3 μM TTR. sAPPα was obtained from Sigma (St. Louis, Mo.). Unless otherwise stated, all sAPPα treatments were performed at 1 nM 48 hours prior to the addition of Aβ. The 10 amino acid fragment of the carboxyl-terminal region of sAPPα (592-601 of APP695; SEVKMDAEFR was added according to the same protocol for sAPPα. Because a variable amount of tissue was obtained from each patient, not all treatments were performed on all patients.

[3] = 48 h prior to 25 μM Aβ (24 h), FIG. 12B, 1 nM, final concentration of 1 mM
[4] = 1 nM 48 hours prior to 25 μM Aβ (24 hours), FIG. 7
[5] = 1 nM 48 h prior to 25 μM Aβ (24 h), FIG. 12A

Substance | Protection against Aβ-induced death (% Death) [1, 3] | Protection against Aβ-induced death (% Death) [1, 4] | also measured
insulin-like growth factor 2 [IGF-2] | – | – | Protection against Aβ-induced death (% Death) ([1]; 500 nM added together with Aβ, FIG. 4A): partially protected
(dD)AEF | do not significantly protect | – | –
D(dA)EF | do not significantly protect | – | –
SEVKMDAEF [10 amino acid fragment with the carboxyl arginine eliminated] | – | protection was maintained | –
VKMDAEFR [fragment with the serine and glutamic acid eliminated] | – | significantly protected | –
EVKMDAEFR [fragment with the serine eliminated] | – | significantly protected | –
DAE(dF) | do not significantly protect | – | –
SEVKMDAE [fragment with both arginine and phenylalanine eliminated] | – | reversed the protection | –
acetyl-EADF (Ac-EADF) | does not | – | –
transthyretin [TTR] | – | – | Protection against the Aβ-induced EthD-1 staining ([2]; co-treatment with 0.03 μM): not; Protection against the Aβ-induced EthD-1 staining ([2]; co-treatment with 0.3 μM): protected; Protection against the Aβ-induced EthD-1 staining ([2]; co-treatment with 3 μM): protected; Concentrations that protect against Aβ toxicity ([2]; human cortical slices, co-treatment with Aβ): ≥ 0.3 µM; Protection against Aβ-induced death (% Death) ([1]; 3 μM added together with Aβ, FIG. 4A): completely protected
EADF-amide (EADF-NH2) [EADF (SEQ ID NO:5)-amide, aspartic acid and glutamic acid switched and an amide group attached to the COOH-terminus] | significantly protects | – | –
acetyl-DAEF (Ac-DAEF) [DAEF with the NH2-terminal end acetylated] | – | – | Protection against Aβ-induced death (% Death) [1, 5]: did not protect to the same degree as the unmodified tetrapeptide; Protection against Aβ-induced death (% Death) ([1]; 1 nM 48 h prior to 25 μM Aβ (24 h), FIG. 12A, listed as Acetylated DAEF): significant protection
R(9)-DAEF (RRRRRRRRRDAEF) [9 arginines added to the NH2-terminal end of the tetrapeptide] | – | – | Protection against Aβ-induced death (% Death) [1, 5]: significantly protected
